In patent US20170121315A1, “HETEROBICYCLICALLY SUBSTITUTED 4-OXOBUTANE ACID DERIVATIVES AND USE THEREOF” (priority 2014, published 2017):

What was measured:
Format in all cases: biochemical
MMP-10 = target: T1, MMP-10 (Homo sapiens, UniProt P09238); test: In vitro MMP-10 inhibition test; settings: human MMP-10
T1 construct: purchased R&D Systems 910-MP
Excerpt: (§1) The MMP-mediated amidolytic cleavage of a suitable peptide substrate leads to an increase in fluorescent light here too. The signal intensity of the fluorescent light is directly proportional to the enzyme activity. The active concentration of a test compound at which half the enzyme is inhibited (50% signal intensity of the fluorescent light) is reported as the IC50 value.
(§2) Recombinant MMP-10 (R&D Systems, 910-MP) is chemically activated in accordance with the manufacturer's instructions using APMA. 1 μl of the test compound to be analysed (as a solution in DMSO, suitable concentrations e.g. 1 nM to 30 μM) is pipetted into 24 μl of activated enzyme (final concentration e.g. 2 nM) in reaction buffer (50 mM Tris/HCl pH 7.5, 10 mM CaCl2, 150 mM NaCl, 0.05% Brij®-35) in a white 384-hole microtiter plate (MTP). The enzymatic reaction is started by adding the intramolecularly quenched Mca-Arg-Pro-Lys-Pro-Val-Glu-Nval-Trp-Arg-Lys(Dnp)-NH2 substrate (final concentration e.g. 10 μM; R&D Systems, ES-002), so as to result in a total test volume of 50 μl. The course of the MMP-10 reaction is measured by measuring the fluorescence intensity (excitation 320 nm, emission 410 nm) over a suitable period of time (e.g. over 120 min at a temperature of 32° C.).

[1] = target: T2, human macrophage elastase (HME/hMMP-12) (Homo sapiens, UniProt P39900); test: In vitro HME inhibition test (standard or high-sensitivity); settings: in some cases mean values, rounded to two significant figures
T2 construct: purchased R&D Systems 917-MP
T2 sequence (P39900 106-470): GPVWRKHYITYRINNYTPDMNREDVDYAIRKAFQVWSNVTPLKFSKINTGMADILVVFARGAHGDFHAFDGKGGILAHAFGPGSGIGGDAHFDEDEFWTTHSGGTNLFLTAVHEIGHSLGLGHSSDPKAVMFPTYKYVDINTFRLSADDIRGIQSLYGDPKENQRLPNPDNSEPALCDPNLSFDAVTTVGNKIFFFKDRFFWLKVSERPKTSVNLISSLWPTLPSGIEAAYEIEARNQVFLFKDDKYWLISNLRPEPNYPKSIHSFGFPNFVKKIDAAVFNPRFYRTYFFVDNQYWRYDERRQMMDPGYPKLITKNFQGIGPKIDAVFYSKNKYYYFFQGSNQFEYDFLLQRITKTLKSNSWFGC
In short: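 Autoactivated HME (0.5 nM; high-sensitivity format 0.05 nM, ~16 h) with 5 μM quenched Mca-PLGLEEA-Dap(Dnp)-NH2 substrate in HEPES pH 7.4, NaCl, CaCl2, ZnCl2, EDTA, Brij buffer, 2 h at 37° C. Fluorescence at ex 323/em 393 nm; IC50 from signal versus concentration.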

MMP-2 = target: T3, MMP-2 (Homo sapiens, UniProt P08253); test: In vitro MMP-2 inhibition test; settings: human MMP-2
T3 construct: purchased R&D Systems 902-MP
T3 sequence (P08253 110-660): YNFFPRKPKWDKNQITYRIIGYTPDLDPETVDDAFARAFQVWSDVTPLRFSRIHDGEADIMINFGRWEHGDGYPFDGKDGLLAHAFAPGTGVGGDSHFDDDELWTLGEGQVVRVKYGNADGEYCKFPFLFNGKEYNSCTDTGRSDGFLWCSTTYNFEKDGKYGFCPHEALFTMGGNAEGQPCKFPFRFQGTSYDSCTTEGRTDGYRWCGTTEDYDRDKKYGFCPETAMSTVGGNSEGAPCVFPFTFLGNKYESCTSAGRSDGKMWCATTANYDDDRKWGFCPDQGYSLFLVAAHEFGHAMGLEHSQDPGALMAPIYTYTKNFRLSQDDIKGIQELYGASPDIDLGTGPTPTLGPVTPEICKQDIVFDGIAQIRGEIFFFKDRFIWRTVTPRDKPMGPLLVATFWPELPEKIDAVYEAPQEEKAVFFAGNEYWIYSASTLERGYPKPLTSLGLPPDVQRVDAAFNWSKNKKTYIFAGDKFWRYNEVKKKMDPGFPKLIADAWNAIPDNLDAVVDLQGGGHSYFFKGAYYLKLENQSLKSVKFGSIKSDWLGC
Excerpt: as §1
as §2, with “MMP-2” for “MMP-10”, “902-MP)” for “910-MP)”, “Mca-Pro-Leu-Gly-Leu-Dpa(Dnp)-Ala-Arg-NH2” for “Mca-Arg-Pro-Lys-Pro-Val-Glu-Nval-Trp-Arg-Lys(Dnp)-NH2”, “ES-001),” for “ES-002),”

MMP-14 = target: T4, MMP-14 (Homo sapiens, UniProt P50281); test: In vitro MMP-14 inhibition test; settings: human MMP-14
T4 construct: purchased R&D Systems 918-MP
Excerpt: as §1
Recombinant MMP-14 (R&D Systems, 918-MP) is enzymatically activated in accordance with the manufacturer's instructions using recombinant furin (R&D Systems, 1503-SE). 1 μl of the test compound to be analysed (as a solution in DMSO, suitable concentrations e.g. 1 nM to 30 μM) is pipetted into 24 μl of activated enzyme (final concentration e.g. 0.5 nM) in reaction buffer (50 mM Tris/HCl pH 7.5, 10 mM CaCl2, 150 mM NaCl, 0.05% Brij®-35) in a white 384-hole microtiter plate (MTP). The enzymatic reaction is started by adding the intramolecularly quenched Mca-Lys-Pro-Leu-Gly-Leu-Dpa(Dnp)-Ala-Arg-NH2 substrate (final concentration e.g. 5 μM; R&D Systems, ES-010), so as to result in a total test volume of 50 μl. The course of the MMP-14 reaction is measured by measuring the fluorescence intensity (excitation 320 nm, emission 410 nm) over a suitable period of time (e.g. over 120 min at a temperature of 32° C.).

T1 sequence (P09238 99-476): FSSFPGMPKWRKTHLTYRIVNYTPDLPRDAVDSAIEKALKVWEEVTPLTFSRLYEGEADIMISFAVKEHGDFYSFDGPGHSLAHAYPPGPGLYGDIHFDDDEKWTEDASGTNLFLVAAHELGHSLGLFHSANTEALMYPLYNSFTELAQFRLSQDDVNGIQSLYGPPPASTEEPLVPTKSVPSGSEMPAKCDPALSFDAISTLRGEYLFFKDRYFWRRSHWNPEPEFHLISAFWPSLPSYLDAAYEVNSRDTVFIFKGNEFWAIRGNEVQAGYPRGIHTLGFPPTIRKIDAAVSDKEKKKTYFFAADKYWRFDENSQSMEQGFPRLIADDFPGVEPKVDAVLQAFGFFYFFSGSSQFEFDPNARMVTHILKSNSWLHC

| SMILES | IC50 (MMP-10) | IC50 [1] | IC50 (MMP-2) | IC50 (MMP-14) |
| --- | --- | --- | --- | --- |
| CCCCCOc1ccc2cc(C(=O)CC(CCn3nnc4ccccc4c3=O)C(=O)O)sc2c1 (racemic) [Example 118, (+/−)-4-Oxo-2-[2-(4-oxo-1,2,3-benzotriazin-3(4H)-yl)ethyl]-4-[6-(pentyloxy)-1-benzothiophen-2-yl]butanoic acid] | 10000 nM | 2.7 nM | 350 nM | 19000 nM |
| O=C(CC(CCn1nnc2ccccc2c1=O)C(=O)O)c1noc2cc(OCc3ccc(F)cc3)ccc12 (racemic) [Example 136, (+/−)-4-{6-[(4-Fluorobenzyl)oxy]-1,2-benzoxazol-3-yl}-4-oxo-2-[2-(4-oxo-1,2,3-benzotriazin-3(4H)-yl)ethyl]butanoic acid] | 12000 nM | 0.63 nM | 320 nM | 4900 nM |
| CCCCCOc1ccc2c(C(=O)CC(CCn3nnc4ccccc4c3=O)C(=O)O)noc2c1 (racemic) [Example 140, (+/−)-4-Oxo-2-[2-(4-oxo-1,2,3-benzotriazin-3(4H)-yl)ethyl]-4-[6-(pentyloxy)-1,2-benzoxazol-3-yl]butanoic acid] | 6300 nM | 0.28 nM | 95 nM | 3400 nM |
| O=C(CC(CCn1nnc2ccccc2c1=O)C(=O)O)c1noc2cc(OCCc3ccccc3)ccc12 (racemic) [Example 144, (+/−)-4-Oxo-2-[2-(4-oxo-1,2,3-benzotriazin-3(4H)-yl)ethyl]-4-[6-(2-phenylethoxy)-1,2-benzoxazol-3-yl]butanoic acid] | 29000 nM | 1.4 nM | 730 nM | 2500 nM |
| O=C(CC(CCn1nnc2ccccc2c1=O)C(=O)O)c1noc2cc(OCc3ccccc3)ccc12 (racemic) [Example 145, (+/−)-4-[6-(Benzyloxy)-1,2-benzoxazol-3-yl]-4-oxo-2-[2-(4-oxo-1,2,3-benzotriazin-3(4H)-yl)ethyl]butanoic acid] | 10000 nM | 0.71 nM | 430 nM | 4000 nM |
| CCCCCOc1ccc2c(C(=O)CC(CCn3nnc4ccccc4c3=O)C(=O)O)coc2c1 (single isomer, unassigned) [Example 91, 4-Oxo-2-[2-(4-oxo-1,2,3-benzotriazin-3(4H)-yl)ethyl]-4-[6-(pentyloxy)-1-benzofur-3-yl]butanoic acid] | 4700 nM | 0.23 nM | 96 nM | 4000 nM |
| O=C(CC(CCn1nnc2ccccc2c1=O)C(=O)O)c1cc2cc(OCCc3ccccc3)ccc2o1 (single isomer, unassigned; (+)) [Example 21, (+)-4-Oxo-2-[2-(4-oxo-1,2,3-benzotriazin-3(4H)-yl)ethyl]-4-[5-(2-phenylethoxy)-1-benzofur-2-yl]butanoic acid] | 13000 nM | 2.2 nM | 1900 nM | 30000 nM |
| O=C(CC(CCn1nnc2ccccc2c1=O)C(=O)O)c1cc2cc(OCc3ccc(F)cc3)ccc2o1 (single isomer, unassigned; (+)) [Example 23, (+)-4-{5-[(4-Fluorobenzyl)oxy]-1-benzofur-2-yl}-4-oxo-2-[2-(4-oxo-1,2,3-benzotriazin-3(4H)-yl)ethyl]butanoic acid] | 11000 nM | 0.81 nM | 1900 nM | 15000 nM |

Second part, the molecule after the results:

| IC50 (MMP-10) | IC50 [1] | IC50 (MMP-2) | IC50 (MMP-14) | SMILES |
| --- | --- | --- | --- | --- |
| 200 nM | 1.8 nM | 270 nM | 8500 nM | O=C(CC(CCn1nnc2ccccc2c1=O)C(=O)O)c1noc2cc(OCc3cccnc3)ccc12 (racemic) [Example 148, (+/−)-4-Oxo-2-[2-(4-oxo-1,2,3-benzotriazin-3(4H)-yl)ethyl]-4-[6-(pyridin-3-ylmethoxy)-1,2-benzoxazol-3-yl]butanoic acid] |
| > 40000 nM | 3.8 nM | 510 nM | 900 nM | O=C(CC(CCn1nnc2ccccc2c1=O)C(=O)O)c1noc2cc(OCC3CC3)ccc12 (racemic) [Example 150, (+/−)-4-[6-(Cyclopropylmethoxy)-1,2-benzoxazol-3-yl]-4-oxo-2-[2-(4-oxo-1,2,3-benzotriazin-3(4H)-yl)ethyl]butanoic acid] |
| 14000 nM | 1.3 nM | 420 nM | 5500 nM | O=C(CC(CCn1nnc2ccccc2c1=O)C(=O)O)c1noc2cc(OCC3CCCCC3)ccc12 (racemic) [Example 153, (+/−)-4-[6-(Cyclohexylmethoxy)-1,2-benzoxazol-3-yl]-4-oxo-2-[2-(4-oxo-1,2,3-benzotriazin-3(4H)-yl)ethyl]butanoic acid] |
| 3300 nM | 0.75 nM | 5600 nM | 26000 nM | O=C(CC(CCn1nnc2ccc(C(F)(F)F)cc2c1=O)C(=O)O)c1noc2cc(OCc3ccccc3)ccc12 (racemic) [Example 154, (+/−)-4-[6-(Benzyloxy)-1,2-benzoxazol-3-yl]-4-oxo-2-{2-[4-oxo-6-(trifluoromethyl)-1,2,3-benzotriazin-3(4H)-yl]ethyl}butanoic acid] |
| 5100 nM | 0.39 nM | 4500 nM | > 40000 nM | O=C(CC(CCn1nnc2ccc(C(F)(F)F)cc2c1=O)C(=O)O)c1noc2cc(OCC3CCOCC3)ccc12 (racemic) [Example 155, (+/−)-4-Oxo-2-{2-[4-oxo-6-(trifluoromethyl)-1,2,3-benzotriazin-3(4H)-yl]ethyl}-4-[6-(tetrahydro-2H-pyran-4-ylmethoxy)-1,2-benzoxazol-3-yl]butanoic acid] |
| 28000 nM | 2.4 nM | 1400 nM | 9300 nM | O=C(CC(CCn1nnc2ccccc2c1=O)C(=O)O)c1onc2cc(OCc3ccccc3)ccc12 (racemic) [Example 156, (+/−)-4-[6-(Benzyloxy)-2,1-benzoxazol-3-yl]-4-oxo-2-[2-(4-oxo-1,2,3-benzotriazin-3(4H)-yl)ethyl]butanoic acid] |
| 190 nM | 0.055 nM | 880 nM | 700 nM | O=C(O)[C@H]1[C@H](Cn2nnc3ccc(C(F)(F)F)cc3c2=O)CC[C@@H]1C(=O)c1cc2cc(OCCc3ccccc3)ccc2o1 (racemic) [Example 157, (+/−)-(1RS,2SR,5RS)-2-{[4-Oxo-6-(trifluoromethyl)-1,2,3-benzotriazin-3(4H)-yl]methyl}-5-{[5-(2-phenylethoxy)-1-benzofur-2-yl]carbonyl}cyclopentanecarboxylic acid (racemate)] |
